Like-named read-outs stand apart in the source and are kept apart here.
Legend:
[1] = test system: aspirin-induced gastric bleeding; assay: Prevention of aspirin-induced gastric bleeding in pyloric-ligated rats, i.p. test compound (Examples 1-22); assay type: in vivo, Female Sprague-Dawley rats; conditions: for Gastric Bleeding Index: score 0 to 40
Method: The prevention of aspirin-induced bleeding in rats was determined by the following procedure. Female Sprague-Dawley rats weighing 150-180 g. were fasted for 24 hours on wire and divided into groups of six animals each. The rats were anesthetized and a ligature placed at the pyloric-duodenal junction. Groups serving as controls received normal saline (4.0 ml/kg, i.p.). […] Some of the compounds were tested at 50 mg/kg, i.p. The rats were sacrificed 60 min. after aspirin administration by cervical dislocation. The volume of the gastric contents was determined and compared against that produced with the same amount of aspirin for change in volume. […] (Gradation between 0 to 40 is on an even scale).

[2] = test system: aspirin-induced gastric bleeding; assay: Aspirin-induced gastric bleeding in Cr51 labeled Heidenhain pouch dogs, oral; assay type: in vivo; conditions: dog
Method: Methocarbamol (Compound 3) and Metaxalone (Compound 15) were evaluated for their effectiveness upon oral administration against aspirin-induced gastric bleeding in dogs. Three female chronic Heindehain pouch dogs were used. Red blood cells from each dog were labeled with Cr^51. The dogs were fasted 24 hours prior to any study and three days elapsed between studies. On experimental days each fundic pouch was rinsed with tepid tap water and then filled with 10 ml. of normal saline. After 30 minutes the saline was replaced with 10 ml. of artificial gastric juice (USP, pH 1.3). The dogs were given Compound 3 (200 mg/kg) or Compound 15 (50 and 100 mg/kg) or placebo (starch) orally in gelatin capsules. The 10 ml. of gastric juice was removed from the pouch after 60 minutes and replaced with another 10 ml. of juice containing 100 mg. of aspirin (80 mesh). This was likewise removed after 60 minutes. All samples collected from the pouches were counted for radio-activity using a deep-well counter. From the amount of radio-activity present in the gastric samples, the loss of blood into the pouch was determined. The results are shown in Table 3 and show the effectiveness of orally administering Compounds 3 and 15 in preventing aspirin-induced gastric bleeding.

aspirin-induced bleeding = conditions: rat; for Gastric Bleeding Index / Percent Decrease In Mucosal Hemorrhage vs. Control / Total Hemoglobin Loss / Volume Gastric Secretion: aspirin 375 p.o.; for Total Hemoglobin Loss / Volume Gastric Secretion: ± S.E.
Method: The effect of glyceryl guaiacolate (Compound 8) on aspirin-induced bleeding in rats was studied using the following procedure. Female Sprague-Dawley rats, weighing 140-160 g. and fasted for 24 hrs. on wire were divided into groups of 10 animals each. All animals were anesthetized with Metofane® and a ligature placed at the pyloric-duodenal junction. Groups serving as controls received normal saline (4.0 ml/kg, i.p.). Some groups received normal saline and in addition were given aspirin (375 mg/kg, p.o.) in artificial gastric juice; the remaining groups received aspirin in the same amount and also glyceryl guaiacolate 30 min. prior to the aspirin. The aspirin was administered in artificial gastric juice (USP, […]) in a total volume of 2 ml. to each rat. Following a recovery period of 1 hr. the animals received saline, aspirin and glyceryl guaiacolate in the amounts and by the routes indicated. In most of the experiments, 90 min. following aspirin the rats were sacrificed by cervical dislocation. The stomachs were removed and gastric contents collected for further analysis. […] Hemoglobin loss produced by the aspirin was determined by the colorimetric method of Bing and Baker (J. Biol. Chem. 92: 589, 1931). The condition of the gastric mucosa was also assessed by determining the incidence and severity of damage using the scoring system described hereinabove to obtain the "Gastric Bleeding Index".
Following the procedure of Example 26, methocarbamol (Compound 3 ) was tested further in rats via intraperitoneal and intraduodenal administration.

[3] = rat, 100 mg/kg i.p. (column head states no dose), aspirin 375 mg/kg p.o.
[4] = ip, 1 h, rat, 100 mg/kg i.p., aspirin 375 mg/kg p.o., read-out: Percent Decrease in Mucosal Bleeding vs Control
[5] = ip, rat, 100 mg/kg i.p. (column head states no dose), aspirin 375 mg/kg p.o., read-out: Vol. % Decrease in Gastric Secretion
[6] = 100 mg/kg intraduodenal, P <0.05
[7] = 200 mg/kg intraduodenal, P <0.05
[8] = 400 mg/kg intraduodenal, P <0.05

In the case of “1-(3,5-dimethyl)-2-hydroxypropyl-4-ethyl thiosemicarbazide [Compound 19]”, the “Vol. % Decrease in Gastric Secretion” value [1, 3] is reported as -40.5%, the Percent Decrease in Mucosal Bleeding vs Control ([1]; rat, 100 mg/kg i.p., aspirin 375 mg/kg p.o.) is reported as 100% and the “Gastric Bleeding Index” value [1, 3] is reported as 0.0.
For OCC(CO)Oc1ccccc1 [Compound 1, 2-phenoxy-1,3-propanediol], the change in vivo at 100 mg/kg [1, 4] was -15% and the “Gastric Bleeding Index” value [1, 3] was 31.7.
OCC(O)COc1ccccc1 (centres unmarked) [Compound 2, 3-phenoxy-1,2-propanediol] was tested, and the change in vivo at 100 mg/kg ([1]; Rattus norvegicus, ip, 1 h, read-out: Percent Decrease in Mucosal Bleeding vs Control) was -14%, the change in vivo at 100 mg/kg ([1]; Rattus norvegicus, ip, read-out: Vol. % Decrease in Gastric Secretion) was -14.1% and the “Gastric Bleeding Index” value [1, 3] was 20.0.
With COc1ccccc1OCC(O)COC(N)=O (centres unmarked) [Compound 3, 3-(o-methoxyphenoxy)-1,2-propanediol-1-carbamate] the “% Protection” value ([2]; 200 mg/kg p.o.) was 79%, the “Mucosal Blood Loss, HCl + Aspirin” value ([2]; 200 mg/kg p.o., ± S.E.) was 6.6 ± 3.1 µL and the “Mucosal Blood Loss, HCl” value ([2]; 200 mg/kg p.o., ± S.E., without aspirin) was 3.5 ± 0.7 µL. For the same compound, the “% Change from Control (mucosal blood loss)” value ([2]; 200 mg/kg p.o., P > .05) was “+88%”, the “preventing aspirin-induced gastric bleeding (in words)” value ([2]; oral) was “effectiveness” and the change in vivo at 100 mg/kg [1, 4] was -43%. The change in vivo at 100 mg/kg [1, 5] was -18.3%, the “Gastric Bleeding Index” value [1, 3] was 21.7 and the “Gastric Bleeding Index” value (aspirin-induced bleeding; 50 mg/kg i.p.) was 34 ± 2. For the same compound, the “Percent Decrease In Mucosal Hemorrhage vs. Control” value (aspirin-induced bleeding; 50 mg/kg i.p.) was “none”, the “Total Hemoglobin Loss” value (aspirin-induced bleeding; 50 mg/kg i.p.) was 22.4 ± 2.4 mg and the “Volume Gastric Secretion” value (aspirin-induced bleeding; 50 mg/kg i.p.) was 6.2 ± 0.5 mL. The “Percent Decrease In Mucosal Hemorrhage vs. Control” value (aspirin-induced bleeding; 100 mg/kg i.p.) was 62%, the “Volume Gastric Secretion” value (aspirin-induced bleeding; 100 mg/kg i.p.) was 5.5 ± 0.3 mL and the “Total Hemoglobin Loss” value (aspirin-induced bleeding; 100 mg/kg i.p., P <0.05) was 11.6 ± 3.6 mg. For the same compound, the “Gastric Bleeding Index” value (aspirin-induced bleeding; 100 mg/kg i.p., P <0.05) was 13 ± 6, the “Gastric Bleeding Index” value (aspirin-induced bleeding; 100 mg/kg intraduodenal) was 24 ± 3 and the “Percent Decrease In Mucosal Hemorrhage vs. Control” value (aspirin-induced bleeding; 100 mg/kg intraduodenal) was 27%. The “Total Hemoglobin Loss” value (aspirin-induced bleeding; [6]) was 27.8 ± 0.1 mg, the “Volume Gastric Secretion” value (aspirin-induced bleeding; [6]) was 5.0 ± 0.1 mL and the “Percent Decrease In Mucosal Hemorrhage vs. Control” value (aspirin-induced bleeding; 200 mg/kg i.p.) was 97%. For the same compound, the “Total Hemoglobin Loss” value (aspirin-induced bleeding; 200 mg/kg i.p., P <0.05) was 1.5 ± 0.5 mg, the “Volume Gastric Secretion” value (aspirin-induced bleeding; 200 mg/kg i.p., P <0.05) was 3.7 ± 0.4 mL and the “Gastric Bleeding Index” value (aspirin-induced bleeding; 200 mg/kg i.p., P <0.05) was 1 ± 1. The “Percent Decrease In Mucosal Hemorrhage vs. Control” value (aspirin-induced bleeding; 200 mg/kg intraduodenal) was 67%, the “Total Hemoglobin Loss” value (aspirin-induced bleeding; [7]) was 7.0 ± 2.8 mg and the “Volume Gastric Secretion” value (aspirin-induced bleeding; [7]) was 3.5 ± 0.6 mL. For the same compound, the “Gastric Bleeding Index” value (aspirin-induced bleeding; [7]) was 11 ± 6, the “Percent Decrease In Mucosal Hemorrhage vs. Control” value (aspirin-induced bleeding; 400 mg/kg intraduodenal) was 99% and the “Total Hemoglobin Loss” value (aspirin-induced bleeding; [8]) was 5.1 ± 3.6 mg. The “Volume Gastric Secretion” value (aspirin-induced bleeding; [8]) was 1.3 ± 0.1 mL, the “Gastric Bleeding Index” value (aspirin-induced bleeding; [8]) was 0.4 ± 1 and the “reducing bleeding (in words)” value (aspirin-induced bleeding; one part by weight methocarbamol to 3.75 parts aspirin) was “significantly effective”.
With COc1ccccc1OCC(O)COC(=O)N(C)C (centres unmarked) [Compound 4, N,N-dimethyl 3-(2-methoxyphenoxy)-1,2-propanediol-1-carbamate] the change in vivo at 100 mg/kg [1, 4] was -70%, the change in vivo at 100 mg/kg [1, 5] was -35.2% and the “Gastric Bleeding Index” value [1, 3] was 11.7.
In the case of COc1ccccc1OCC(C)O (centres unmarked) [Compound 5, 1-(2-methoxyphenoxy)-2-propanol], the change in vivo at 100 mg/kg [1, 4] is reported as -66%, the change in vivo at 100 mg/kg [1, 5] is reported as -42% and the “Gastric Bleeding Index” value [1, 3] is reported as 12.5.
COc1ccc(Cl)cc1OCC(C)O (centres unmarked) [Compound 6, 1-(5-chloro-2-methoxyphenoxy)-2-propanol] was tested, and the change in vivo at 100 mg/kg [1, 4] was -93%, the change in vivo at 100 mg/kg [1, 5] was -42.2% and the “Gastric Bleeding Index” value [1, 3] was 1.7.
For COc1ccc(Cl)cc1OCC(O)CO (centres unmarked) [Compound 7, 3-(5-chloro-2-methoxyphenoxy)-1,2-propanediol], the change in vivo at 100 mg/kg [1, 4] was -49%, the change in vivo at 100 mg/kg [1, 5] was -42% and the “Gastric Bleeding Index” value [1, 3] was 19.2.
In the case of Cc1ccc(Cl)cc1OCC(O)COC(N)=O (centres unmarked) [Compound 9, 3-(5-chloro-2-methylphenoxy)-1,2-propanediol-1-carbamate], the change in vivo at 100 mg/kg [1, 4] is reported as -81%, the change in vivo at 100 mg/kg [1, 5] is reported as -36.6% and the “Gastric Bleeding Index” value [1, 3] is reported as 7.2.
Cc1c(Cl)cccc1OCC(C)O (centres unmarked) [Compound 10, 1-(3-chloro-2-methylphenoxy)-2-propanol] was tested, and the change in vivo at 100 mg/kg [1, 4] was -40%, the change in vivo at 100 mg/kg [1, 5] was -18.8% and the “Gastric Bleeding Index” value [1, 3] was 22.5.
With Cc1ccc(Cl)cc1OCC(O)CO (centres unmarked) [Compound 11, 3-(5-chloro-2-methylphenoxy)-1,2-propanediol] the change in vivo at 100 mg/kg [1, 4] was -10%, the change in vivo at 100 mg/kg [1, 5] was -29.7% and the “Gastric Bleeding Index” value [1, 3] was 20.8.
For Cc1ccc(Cl)cc1OCC(C)O (centres unmarked) [Compound 12, 3-(5-chloro-2-methylphenoxy)-2-propanol], the change in vivo at 100 mg/kg [1, 4] was -75%, the change in vivo at 100 mg/kg [1, 5] was -35.9% and the “Gastric Bleeding Index” value [1, 3] was 5.8.
In the case of COc1ccc(Cl)cc1OCC(O)COC(N)=O (centres unmarked) [Compound 13, 3-(5-chloro-2-methoxyphenoxy)-1,2-propanediol-1-carbamate], the change in vivo at 100 mg/kg [1, 4] is reported as -100%, the change in vivo at 100 mg/kg [1, 5] is reported as -57.6% and the “Gastric Bleeding Index” value [1, 3] is reported as 0.0.
In the case of CCCCNCC(O)COc1ccccc1OC (centres unmarked) [Compound 14, 1-(n-butylamino)-3-(2-methoxyphenoxy)-2-propanol], the change in vivo at 50 mg/kg ([1]; ip, 1 h, rat, 50 mg/kg i.p., aspirin 375 mg/kg p.o., read-out: Percent Decrease in Mucosal Bleeding vs Control) is reported as -78%, the change in vivo at 100 mg/kg [1, 4] is reported as -70% and the change in vivo at 100 mg/kg [1, 5] is reported as -35.6%. The Toxicity remark ([1]; rat, 100 mg/kg i.p.) was “Toxic” and the “Gastric Bleeding Index” value [1, 3] was 5.8.
In the case of O=C1NCC(COc2ccc(Cl)cc2Cl)O1 (centres unmarked) [Compound 16, 5-(2,4-dichlorophenoxymethyl)-2-oxazolidinone], the change in vivo at 100 mg/kg [1, 4] is reported as -100%, the change in vivo at 100 mg/kg [1, 5] is reported as -44.6% and the “Gastric Bleeding Index” value [1, 3] is reported as 0.0.
In the case of Cc1cccc(Cl)c1OCC(C)OC(N)=O (centres unmarked) [Compound 17, 1-(6-chloro-2-methylphenoxy)-2-propylcarbamate], the change in vivo at 100 mg/kg [1, 4] is reported as -72%, the change in vivo at 100 mg/kg [1, 5] is reported as -36.5% and the “Gastric Bleeding Index” value [1, 3] is reported as 7.5.
For Cc1cc(Cl)ccc1OCC(C)OC(=O)NC(C)C (centres unmarked) [Compound 18, N-isopropyl 1-(4-chloro-2-methylphenoxy)-2-propylcarbamate], the change in vivo at 100 mg/kg [1, 4] was -28%, the change in vivo at 100 mg/kg [1, 5] was -29.3% and the “Gastric Bleeding Index” value [1, 3] was 19.2.
In the case of CNC(=O)N1CCC(Oc2cccc(Cl)c2)C1 (centres unmarked) [Compound 20, 3-(3-chlorophenoxy)-1-methylcarbamoyl-pyrrolidine], the change in vivo at 100 mg/kg [1, 4] is reported as -100%, the change in vivo at 100 mg/kg [1, 5] is reported as -31% and the “Gastric Bleeding Index” value [1, 3] is reported as 0.0.
NC(=O)OCC(O)COc1ccc(Cl)cc1 (centres unmarked) [Compound 21, 3-(4-chlorophenoxy)-2-hydroxypropylcarbamate] was tested, and the change in vivo at 100 mg/kg [1, 4] was -78%, the change in vivo at 100 mg/kg [1, 5] was -30.5% and the “Gastric Bleeding Index” value [1, 3] was 4.2.
CN(C)CCNC(=O)N1CCC(Oc2cccc(Cl)c2)C1 (centres unmarked) [Compound 30, 3-(3-chlorophenoxy)-N-[2-(dimethylaminoethyl)carboxamide]-1-pyrrolidine] showed a change in vivo at 100 mg/kg [1, 4] of -100%, a change in vivo at 30 mg/kg ([1]; ip, 1 h, rat, at 30 mg/kg (footnote b), read-out: Percent Decrease in Mucosal Bleeding vs Control) of -97% and a change in vivo at 30 mg/kg ([1]; ip, rat, at 30 mg/kg (footnote b), read-out: Vol. % Decrease in Gastric Secretion) of -32.8%. For the same compound, the “Gastric Bleeding Index” value ([1]; rat, at 30 mg/kg (footnote b)) was 0.8.
